# Source: patent publication US20110028566A1, “COMPOSITIONS AND PRODUCTS CONTAINING CYCLOALIPHATIC DIOL ANTIMICROBIAL AGENTS AND METHODS OF USING THE COMPOSITIONS AND PRODUCTS” (EASTMAN CHEMICAL COMPANY, priority 2009, published 2011)
# Legend:
# Assay in all cases: Microbial challenge testing in BPW
# Type in all cases: cell-based
# Aspergillus niger = tested on: Aspergillus niger
# Procedure: (§1) The microorganisms used in challenge tests are given in Table 3, designated as either ATCC (American Type Culture Collection) or wild type. These wild type organisms were problematic organisms previously isolated from chemical products. In the description for each organism, the bacteria are indicated as either GN (Gram negative) or GP (Gram positive).
# (§2) All of the microorganisms were grown in Tryptose Soy Broth (TSB), DIFCO™ available from Becton, Dickinson and Company, containing 1% dextrose. Aspergillus niger and Candida albicans were incubated at 22° C.±2° C. for at least 96 hours. All bacteria were incubated at 35° C.±2° C. in a humidified incubator for at least 96 hours.
# (§3) Aspergillus niger and Candida albicans were also grown on Sabouraud dextrose agar (SDA) at 22° C.±2° C. for 7 to 14 days or until full sporulation was achieved.
# (§4) The following procedure was followed to determine the amount of each challenge material (inoculum broth) required to produce a 10^8 cfu/mL challenge, which is equivalent to a final test-sample microbial concentration of 10^5 to 10^6 cfu (colony-forming units)/mL.
# (§5) Using a sterile serological pipette, 1 mL of the growth from each TSB culture was transferred into tubes containing 9 mL phosphate buffer (pH 7.2) and mixed thoroughly. This process was repeated to make serial 1:10 dilutions. Then 0.1 mL of each sample and dilution was inoculated onto agar plates to produce the equivalent of a further 1:10 dilution. C. albicans and A. niger were inoculated onto SDA and bacteria were inoculated onto Plate Count Agar (PCA), DIFCO™ available from Becton, Dickinson and Company. The 0.1 mL aliquots were evenly distributed on the plates using the spread-plate technique. The spread-plate technique is performed by spreading the aliquot over the entire plate surface using a sterile spreading rod while rotating the plate with a rotary auto-plater. After the inoculum was absorbed completely, each plate was inverted and incubated (fungi at 22° C.±2° C. and bacteria at 35° C.±2° C.).
# (§6) After incubation for at least 48 hours, colonies that had developed on the agar plates were counted and recorded with the corresponding dilution. If counting had to be delayed temporarily, plates were refrigerated, preferably no more than 24 hours, until they could be counted. The number of cfu/mL was determined by multiplying the count by the dilution factor for that particular plate.
# (§7) Turbidity in Nepholemetric Turbidity Units (NTU) was measured for each serial dilution using the HF-Micro 100 Model Turbidimeter. For each microorganism, the plate counts were compared to the turbidity readings.
# Aspergillus niger cultures were harvested and spores dislodged from the SDA on which they were grown by rubbing the growth gently with a sterile inoculating loop. The spores were then mixed into the broth culture that had been incubated with a sterile magnetic stir bar to reduce pellicle formation. The spore-culture mixture was filtered repeatedly through sterile, non-absorbent cotton and harvested repeatedly, adjusting vegetative cells and spores to a level of 1.0×10^8. A hemocytometer was used to verify the final challenge concentration.
# (§8) Control substrates (“broth alone”) were prepared for each microorganism separately in triplicate by adding 13.5 mL of BPW (pH 7.0) containing 1% (w/v) dextrose to each 20-mL glass tube; then adding 1.5 mL challenge material to produce a final concentration at time zero of 10^5 to 10^6 cfu/mL and a total volume of 15 mL.
# (§9) Test sample substrates were prepared containing each test material (1,4-CHDM, etc) or combination of test materials at the concentrations shown in Tables 5 and 6.
# Candida albicans = tested on: Candida albicans
# Procedure: as §1, §2, §3, §4, §5, §6, §7
# On the day of challenge, the Candida albicans inoculum broth was poured through non-absorbent sterile gauze and centrifuged. The […] was then diluted with phosphate buffer (pH 7.2) until the desired turbidity was reached. Using a hemocytometer, a determination was made whether the challenge contained the desired concentration. Dilutions were made through 1.0×10^8 and three SDA spread plates were inoculated with 0.1 mL of each dilution.
# as §8, §9
# Aeromonas sp. = tested on: Aeromonas sp.
# Procedure: as §1, §2, §4, §5, §6, §7, §8
# (§10) Test sample substrates were prepared containing each test material (1,4-CHDM, etc) or combination of test materials at the concentrations shown in Tables 5 and 6. Sample substrates were prepared in triplicate, except those substrates containing PE or CG which were prepared in duplicate. Substrates were prepared by adding BPW containing 1% (w/v) dextrose to each 20-mL glass tube, then adding the test material in the amount appropriate to achieve the desired weight/volume percent (g/100 mL) and to obtain a total volume of BPW with dextrose and test material of 13.5 mL. Then 1.5 mL challenge material was added to produce a final concentration at time zero of 10^5 to 10^6 cfu/mL of the respective organism and a total test sample substrate volume of 15 mL.
# (§11) After mixing, all challenged substrates were incubated at 35° C.±2° C. for 14 days and then at ambient room temperature.
# Bacillus subtilis = tested on: Bacillus subtilis
# Procedure: as §1, §2, §4, §5, §6, §7, §8, §10, §11
# Burkholderia cepacia = tested on: Burkholderia cepacia
# Procedure: as §1, §2, §4, §5, §6, §7, §8, §10, §11
# Escherichia coli = conditions: 0.05%
# Procedure: as §1, §2, §4, §5, §6, §7, §8, §10, §11
smiles,measurement,setting,value
"O=c1[nH]sc2ccccc12 [BIT, 1,2-benzisothiazolin-3-one]",Grade code A. niger,"Aspergillus niger; 0.05%, 3 days incubation",4
same,Grade code A. niger,"Aspergillus niger; 0.05%, 13 days incubation",4
same,Grade code A. niger,"Aspergillus niger; 0.05%, 30 days incubation",4
same,Grade code A. niger,"Aspergillus niger; 0.2%, 3 days incubation",4
same,Grade code A. niger,"Aspergillus niger; 0.2%, 13 days incubation",4
same,Grade code A. niger,"Aspergillus niger; 0.2%, 30 days incubation",4
same,Grade code C. albicans,"Candida albicans; 0.05%, 3 days incubation","4 (1001 to 10,000 colonies (thus 10,000 cfu/mL to 100,000 cfu/mL))"
same,Grade code C. albicans,"Candida albicans; 0.05%, 14 days incubation","4 (1001 to 10,000 colonies (thus 10,000 cfu/mL to 100,000 cfu/mL))"
same,Grade code C. albicans,"Candida albicans; 0.05%, 30 days incubation","4 (1001 to 10,000 colonies (thus 10,000 cfu/mL to 100,000 cfu/mL))"
same,Grade code C. albicans,"Candida albicans; 0.2%, 3 days incubation","4 (1001 to 10,000 colonies (thus 10,000 cfu/mL to 100,000 cfu/mL))"
same,Grade code C. albicans,"Candida albicans; 0.2%, 14 days incubation","3 (101 to 1000 colonies (thus 1000 to 10,000 cfu/mL))"
same,Grade code C. albicans,"Candida albicans; 0.2%, 30 days incubation","3 (101 to 1000 colonies (thus 1000 to 10,000 cfu/mL))"
same,Grade code Aeromonas sp,"Aeromonas sp.; 0.05%, 3 days incubation","5 (More than 10,000 colonies estimated (thus >100,000 cfu/mL))"
same,Grade code Aeromonas sp,"Aeromonas sp.; 0.05%, 14 days incubation","4 (1001 to 10,000 colonies (thus 10,000 cfu/mL to 100,000 cfu/mL))"
same,Grade code Aeromonas sp,"Aeromonas sp.; 0.05%, 30 days incubation","4 (1001 to 10,000 colonies (thus 10,000 cfu/mL to 100,000 cfu/mL))"
same,Grade code Aeromonas sp,"Aeromonas sp.; 0.2%, 3 days incubation","4 (1001 to 10,000 colonies (thus 10,000 cfu/mL to 100,000 cfu/mL))"
same,Grade code Aeromonas sp,"Aeromonas sp.; 0.2%, 14 days incubation",2 (52 to 100 colonies counted (thus 520 to 1000 cfu/mL))
same,Grade code Aeromonas sp,"Aeromonas sp.; 0.2%, 30 days incubation",2 (52 to 100 colonies counted (thus 520 to 1000 cfu/mL))
same,Grade code B. subtilis,"Bacillus subtilis; 0.05%, 3 days incubation","4 (1001 to 10,000 colonies (thus 10,000 cfu/mL to 100,000 cfu/mL))"
same,Grade code B. subtilis,"Bacillus subtilis; 0.05%, 14 days incubation","4 (1001 to 10,000 colonies (thus 10,000 cfu/mL to 100,000 cfu/mL))"
same,Grade code B. subtilis,"Bacillus subtilis; 0.05%, 30 days incubation","4 (1001 to 10,000 colonies (thus 10,000 cfu/mL to 100,000 cfu/mL))"
same,Grade code B. subtilis,"Bacillus subtilis; 0.2%, 3 days incubation","4 (1001 to 10,000 colonies (thus 10,000 cfu/mL to 100,000 cfu/mL))"
same,Grade code B. subtilis,"Bacillus subtilis; 0.2%, 14 days incubation","4 (1001 to 10,000 colonies (thus 10,000 cfu/mL to 100,000 cfu/mL))"
same,Grade code B. subtilis,"Bacillus subtilis; 0.2%, 30 days incubation","4 (1001 to 10,000 colonies (thus 10,000 cfu/mL to 100,000 cfu/mL))"
same,Grade code B. cepacia,"Burkholderia cepacia; 0.05%, 3 days incubation","4 (1001 to 10,000 colonies (thus 10,000 cfu/mL to 100,000 cfu/mL))"
same,Grade code B. cepacia,"Burkholderia cepacia; 0.05%, 14 days incubation","4 (1001 to 10,000 colonies (thus 10,000 cfu/mL to 100,000 cfu/mL))"
same,Grade code B. cepacia,"Burkholderia cepacia; 0.05%, 30 days incubation","4 (1001 to 10,000 colonies (thus 10,000 cfu/mL to 100,000 cfu/mL))"
same,Grade code B. cepacia,"Burkholderia cepacia; 0.2%, 3 days incubation","3 (101 to 1000 colonies (thus 1000 to 10,000 cfu/mL))"
same,Grade code B. cepacia,"Burkholderia cepacia; 0.2%, 14 days incubation",1 (1 to 51 colonies counted (thus 10 to 510 cfu/mL))
same,Grade code B. cepacia,"Burkholderia cepacia; 0.2%, 30 days incubation",2 (52 to 100 colonies counted (thus 520 to 1000 cfu/mL))
same,Grade code E. coli,Escherichia coli; 3 days incubation,"4 (1001 to 10,000 colonies (thus 10,000 cfu/mL to 100,000 cfu/mL))"
same,Grade code E. coli,Escherichia coli; 14 days incubation,"4 (1001 to 10,000 colonies (thus 10,000 cfu/mL to 100,000 cfu/mL))"
same,Grade code E. coli,Escherichia coli; 30 days incubation,"4 (1001 to 10,000 colonies (thus 10,000 cfu/mL to 100,000 cfu/mL))"
